Laboratory results as given in the NIST ThermoML archive (doi:10.1016/j.fluid.2006.08.020).

Experiments:
[1] = osmotic coefficient (dimensionless); mn = molality of the nth substance listed, in mol/kg; conditions: 298.15 K, Liquid, isopiestic method
[2] = 298.1 K; 101.33 kPa; Liquid; Vibrating tube method

CO [methanol] + CC(=O)Nc1ccc(O)cc1
[1]
Conditions | osmotic coefficient
m1 = 0.0931 | 0.998
m1 = 0.1398 | 1.001
m1 = 0.2163 | 1.001
m1 = 0.3514 | 1
m1 = 0.5633 | 1.002
m1 = 1.006 | 1.009
m1 = 1.236 | 1.01
m1 = 1.4 | 1.015
m1 = 1.578 | 1.017
m1 = 1.866 | 1.02
m1 = 2.465 | 1.027
m1 = 2.762 | 1.033
m1 = 3.096 | 1.041
m1 = 3.56 | 1.055
m1 = 3.974 | 1.068
m1 = 4.175 | 1.075
m1 = 4.812 | 1.099
m1 = 5.316 | 1.12
m1 = 6.17 | 1.159
m1 = 6.418 | 1.171
m1 = 6.833 | 1.19
m1 = 7.073 | 1.21

CO [methanol]
Conditions | mass density [kg/m3]
[2] | 787.5
